Source: patent US20200016231A1, “BIOFILM DISRUPTING COMPOSITION” (Whiteley Corporation Pty Ltd, priority 2016, published 2020)
Read-outs that look alike come from different tables or passages of the source.

Columns and labels:
[1] = test system: Staphylococcus agalactiae; assay: organism not typed; assay type: cell-based, Streptococcus agalactiae; conditions: for viability at 10000 µM: GSH 10 mM; for viability at 15000 µM: GSH 15 mM; for viability at 30000 µM: GSH 30 mM
Method: The treatments shown in column 1 of Table 5 were tested against four strains of […] agalactiae, (veterinary strains ex Cow mastitis). […] The treatments shown in column 1 of Table 13 were tested against four strains of […] agalactiae, (veterinary strains ex Cow mastitis).

[2] = test system: Pseudomonas aeruginosa; assay: Biofilm viability, resazurin assay, Pseudomonas aeruginosa clinical isolates; assay type: cell-based; conditions: read-out: % bacterial viability; for viability at 10000 µM: GSH 10 mM; for viability at 15000 µM: GSH 15 mM; for viability at 30000 µM: GSH 30 mM
[3] = test system: E. cloacae; assay: Biofilm viability, resazurin assay, Enterobacter species: E. cloacae; assay type: cell-based; conditions: read-out: % bacterial viability; for viability at 10000 µM: GSH 10 mM; for viability at 15000 µM: GSH 15 mM; for viability at 30000 µM: GSH 30 mM
Method: (§1) Bacterial isolates were grown in Tryptone Soya Broth (TSB) medium for 24 hours at 37° C., in a shaking incubator set at 150 rpm. After this time the organisms were harvested by centrifugation (5000×g, 5 min at 10° C.). After centrifugation, the supernatant liquid was removed and the bacterial pellet was suspended in 1×Phosphate Buffered Saline (PBS). To initiate biofilm growth, the bacterial suspension from PBS was immediately re-suspended in TSB and 250 μL of bacterial cell suspension (OD600=0.5±0.05) were added into the wells of 96-well plates (Corning Corp. USA) and incubated at 37° C. for 48 h at 150 r.p.m.
(§2) After 24 h, treated biofilms supernatant were replaced with 200 μL of 1×PBS, followed by addition of 15 μL of a 0.05% w/v solution of resazurin (Sigma-Aldrich), and incubated further at 37° C., 150 r.p.m.
(§3) After a further 24 h, the fluorescent intensity of the biofilm was determined at Ex544 nm and Em590 nm (Tecan infinite M1000 pro microplate reader). Results are plotted as percentage (%) of bacterial vaiability calculated based on fluorescent intensity. Control or untreated bacterial biofilm fluorescent intensity always considered as 100% bacterial viability and % viability under rest of treatment conditions were calculated with reference to control.
(§4) It should be noted that the Resazurin assay works by recording fluorescence intensity and depends upon two factors (total number of bacteria and total number of viable bacteria in a given biofilm sample).
(§5) The treatments shown in column 1 of Table 8 were tested against three clinical isolates of Enterobacter species.

[4] = test system: E aerogenes; assay: Biofilm viability, resazurin assay, Enterobacter species: E aerogenes; assay type: cell-based; conditions: E aerogenes 359475 Sternum, read-out: % bacterial viability
Method: as §1, §2, §3, §4, §5

[5] = test system: Klebsiella pneumoniae; assay: Biofilm viability, resazurin assay, Klebsiella pneumoniae clinical isolates; assay type: cell-based; conditions: read-out: % bacterial viability; for viability at 10000 µM: GSH 10 mM; for viability at 15000 µM: GSH 15 mM; for viability at 30000 µM: GSH 30 mM
Method: as §1, §2, §3, §4
The treatments shown in column 1 of table 7 were tested against three clinical isolates of Klebsiella pneumoniae.

[6] = test system: biofilms; conditions: GSH at 30 milli Molar; also non-Pseudomonad organisms (FIGS. 1-13)
Method: as §1, with “r.p.m. […]” for “r.p.m.”
as §3, §4

[7] = test system: methicillin-resistant Staphylococcus aureus; assay: microbe, parasite or virus in culture; conditions: MRSA
[8] = test system: Multidrug resistant Acinetobacter Baumannii, (MRAB); assay: microbe, parasite or virus in culture
[9] = test system: Escherichia coli; assay: Biofilm viability, resazurin assay, Escherichia coli clinical isolates; assay type: cell-based; conditions: read-out: % bacterial viability; for viability at 10000 µM: GSH 10 mM; for viability at 15000 µM: GSH 15 mM; for viability at 30000 µM: GSH 30 mM
Method: as §1, §2, §3, §4
The treatments shown in column 1 of Table 9 were tested against three clinical isolates of Enterobacter species.

[10] = test system: Streptococcus pyogenes; assay: Biofilm viability, resazurin assay, Streptococcus pyogenes clinical isolates; assay type: cell-based; conditions: read-out: % bacterial viability; for viability at 10000 µM: GSH 10 mM; for viability at 15000 µM: GSH 15 mM; for viability at 30000 µM: GSH 30 mM
Method: as §1, §2, §3, §4
The treatments shown in column 1 of Table 10 were tested against three clinical isolates of Enterobacter species. The treatments used are given in column 1, and the % bacterial viability for each strain tested are given in the subsequent columns (see also FIG. 9).

[11] = read-out: % bacterial viability, S. agalactiae # 30
[12] = read-out: % bacterial viability, S. agalactiae # 44
[13] = read-out: % bacterial viability, S. agalactiae # 70
[14] = read-out: % bacterial viability, S. agalactiae # 88
[15] = read-out: % bacterial viability, S. agalactiae # 106
[16] = E. cloacae 359315 Left foot wound

N[C@@H](CCC(=O)N[C@@H](CS)C(=O)NCC(=O)O)C(=O)O [GSH, glutathione] showed a viability at 10000 µM [1, 11] of 104%, a viability at 15000 µM [1, 11] of 80.7% and a viability at 30000 µM [1, 11] of 35.3%. The viability at 10000 µM [1, 12] was 87%, the viability at 15000 µM [1, 12] was 73.9% and the viability at 30000 µM [1, 12] was 29.2%. For the same compound, the viability at 10000 µM [1, 13] was 89.2%, the viability at 15000 µM [1, 13] was 79.4% and the viability at 30000 µM [1, 13] was 38.3%. It also gave a viability at 10000 µM [1, 14] of 88%, a viability at 15000 µM [1, 14] of 81.6% and a viability at 30000 µM [1, 14] of 25%. It also gave a viability at 10000 µM [1, 15] of 103%, a viability at 15000 µM [1, 15] of 83.2% and a viability at 30000 µM [1, 15] of 29.2%. The viability at 10000 µM ([2]; 364077 Scalp wound) was 95.6%, the viability at 15000 µM ([2]; 364077 Scalp wound) was 93% and the viability at 30000 µM ([2]; 364077 Scalp wound) was 30.3%. The viability at 10000 µM ([2]; 365707 Left ankle wound) was 104%, the viability at 15000 µM ([2]; 365707 Left ankle wound) was 101% and the viability at 30000 µM ([2]; 365707 Left ankle wound) was 11.2%. For the same compound, the viability at 10000 µM ([2]; PA0053 DFU) was 89.8%, the viability at 15000 µM ([2]; PA0053 DFU) was 74.5% and the viability at 30000 µM ([2]; PA0053 DFU) was 7.3%. It also gave a viability at 10000 µM ([3]; E. cloacae 357768 Ear) of 62.8%, a viability at 15000 µM ([3]; E. cloacae 357768 Ear) of 38.9% and a viability at 30000 µM ([3]; E. cloacae 357768 Ear) of 0%. The viability at 10000 µM [3, 16] was 84.7%, the viability at 15000 µM [3, 16] was 74% and the viability at 30000 µM [3, 16] was 19.5%. For the same compound, the viability at 10000 µM ([4]; GSH 10 mM) was 79%, the viability at 15000 µM ([4]; GSH 15 mM) was 55.1% and the viability at 30000 µM ([4]; GSH 30 mM) was 14.6%. The viability at 10000 µM ([5]; 374450 Catheter urine) was 86%, the viability at 15000 µM ([5]; 374450 Catheter urine) was 72.8% and the viability at 30000 µM ([5]; 374450 Catheter urine) was 16.8%. The viability at 10000 µM ([5]; 377951 Left hip wound) was 81.6%, the viability at 15000 µM ([5]; 377951 Left hip wound) was 70.8% and the viability at 30000 µM ([5]; 377951 Left hip wound) was 9.13%. It also gave a viability at 10000 µM ([5]; 385261 Neck wound) of 78.8%, a viability at 15000 µM ([5]; 385261 Neck wound) of 62.5% and a viability at 30000 µM ([5]; 385261 Neck wound) of 14.1%. For the same compound, the “killing/disrupting biofilms compared with antibiotics” value [6] was “significantly higher effect than antibiotics”, the viability at 10000 µM ([7]; read-out: % bacterial viability, MRSA 27060 Left leg, GSH 10 mM) was 88.8% and the viability at 15000 µM ([7]; read-out: % bacterial viability, MRSA 27060 Left leg, GSH 15 mM) was 65.2%. It also gave a viability at 30000 µM ([7]; read-out: % bacterial viability, MRSA 27060 Left leg, GSH 30 mM) of 1.02%, a viability at 10000 µM ([7]; read-out: % bacterial viability, MRSA 30616 Chin vesicle, GSH 10 mM) of 73.1% and a viability at 15000 µM ([7]; read-out: % bacterial viability, MRSA 30616 Chin vesicle, GSH 15 mM) of 58.8%. It also gave a viability at 30000 µM ([7]; read-out: % bacterial viability, MRSA 30616 Chin vesicle, GSH 30 mM) of 4.54%, a viability at 10000 µM ([7]; read-out: % bacterial viability, MRSA - 0799 DFU, GSH 10 mM) of 86.7% and a viability at 15000 µM ([7]; read-out: % bacterial viability, MRSA - 0799 DFU, GSH 15 mM) of 75%. For the same compound, the viability at 30000 µM ([7]; read-out: % bacterial viability, MRSA - 0799 DFU, GSH 30 mM) was 33.1%, the viability at 10000 µM ([8]; read-out: % bacterial viability, MRAB 1 014754 Urine, GSH 10 mM) was 73.6% and the viability at 15000 µM ([8]; read-out: % bacterial viability, MRAB 1 014754 Urine, GSH 15 mM) was 55.6%. It also gave a viability at 30000 µM ([8]; read-out: % bacterial viability, MRAB 1 014754 Urine, GSH 30 mM) of 20.4%, a viability at 10000 µM ([8]; read-out: % bacterial viability, MRAB 2 014801 Catheter, GSH 10 mM) of 70.8% and a viability at 15000 µM ([8]; read-out: % bacterial viability, MRAB 2 014801 Catheter, GSH 15 mM) of 41.2%. For the same compound, the viability at 30000 µM ([8]; read-out: % bacterial viability, MRAB 2 014801 Catheter, GSH 30 mM) was 2.45%, the viability at 10000 µM ([8]; read-out: % bacterial viability, MRAB 3 015069 Skin, GSH 10 mM) was 84.6% and the viability at 15000 µM ([8]; read-out: % bacterial viability, MRAB 3 015069 Skin, GSH 15 mM) was 63.2%. It also gave a viability at 30000 µM ([8]; read-out: % bacterial viability, MRAB 3 015069 Skin, GSH 30 mM) of 37.7%, a viability at 10000 µM ([8]; read-out: % bacterial viability, MRAB 4 015095 Hospital Environ, GSH 10 mM) of 68% and a viability at 15000 µM ([8]; read-out: % bacterial viability, MRAB 4 015095 Hospital Environ, GSH 15 mM) of 57.7%. For the same compound, the viability at 30000 µM ([8]; read-out: % bacterial viability, MRAB 4 015095 Hospital Environ, GSH 30 mM) was 13.8%, the viability at 10000 µM ([8]; read-out: % bacterial viability, MRAB 5 015103 Hospital Environ, GSH 10 mM) was 65.1% and the viability at 15000 µM ([8]; read-out: % bacterial viability, MRAB 5 015103 Hospital Environ, GSH 15 mM) was 51.5%. The viability at 30000 µM ([8]; read-out: % bacterial viability, MRAB 5 015103 Hospital Environ, GSH 30 mM) was 16.7%, the viability at 10000 µM ([8]; read-out: % bacterial viability, MRAB 12 016419 Catheter, GSH 10 mM) was 80.8% and the viability at 15000 µM ([8]; read-out: % bacterial viability, MRAB 12 016419 Catheter, GSH 15 mM) was 49%. The viability at 30000 µM ([8]; read-out: % bacterial viability, MRAB 12 016419 Catheter, GSH 30 mM) was 18.4%, the viability at 10000 µM ([9]; 362805 Exit) was 75.7% and the viability at 15000 µM ([9]; 362805 Exit) was 71.8%. For the same compound, the viability at 30000 µM ([9]; 362805 Exit) was 0.7%, the viability at 10000 µM ([9]; 365714 Wound) was 108% and the viability at 15000 µM ([9]; 365714 Wound) was 93.4%. The viability at 30000 µM ([9]; 365714 Wound) was 12.3%, the viability at 10000 µM ([9]; 366290 Drain fluid) was 69.8% and the viability at 15000 µM ([9]; 366290 Drain fluid) was 68.7%. The viability at 30000 µM ([9]; 366290 Drain fluid) was 3.9%, the viability at 10000 µM ([10]; 361194 Left leg boil) was 55.6% and the viability at 15000 µM ([10]; 361194 Left leg boil) was 35.8%. It also gave a viability at 30000 µM ([10]; 361194 Left leg boil) of 4.3%, a viability at 10000 µM ([10]; 371982 Skin Wound) of 99.8% and a viability at 15000 µM ([10]; 371982 Skin Wound) of 90.2%. It also gave a viability at 30000 µM ([10]; 371982 Skin Wound) of 15.4%, a viability at 10000 µM ([10]; 386596 Head Wound) of 67.7% and a viability at 15000 µM ([10]; 386596 Head Wound) of 42.7%. It also gave a viability at 30000 µM ([10]; 386596 Head Wound) of 22.3%.
